Results taken from US20260209189A1, “ISOXAZOLINE-SUBSTITUTED BENZAMIDE COMPOUND AND APPLICATION THEREOF” (priority 2022, published 2026).

How the values were obtained:
Assay type in all cases: in vivo
Aphis craccivora = test: Insecticidal activity assay, peanut leaf dip, adult aphid; settings: liquid concentration 8.1 ppm, 48 h
Protocol: (§1) The compound of the present invention was dissolved in acetone, and then diluted with water into liquids with gradients of different concentrations (ppm). Corn leaves were soaked in liquids of different concentrations for about 20 seconds, air-dried and then placed in petri dishes where 3rd instar Spodoptera frugiperda were placed, respectively; kale leaves were soaked in liquids of different concentrations for about 20 seconds, air-dried and then placed in petri dishes where 3rd instar Spodoptera frugiperda were placed, respectively; peanut leaves were soaked in liquids of different concentrations for about 20 seconds, air-dried and then placed in petri dishes where Tetranychus urticae (adult mite) and Aphis craccivora (adult aphid) were placed, respectively; water bamboo leaves were soaked in liquids of different concentrations for about 20 seconds, air-dried and then placed in petri dishes where 4th instar Chilo suppressalis were placed, respectively. Each petri dish was placed with 10 insects, covered and then stored at 25° C. in a constant temperature room. The number of dead insects were checked after 48 h. The dead insect rate was calculated by the formula: Death rate (%)=(Number of dead insects/Number of test insects)×100. Furthermore, the experiment was conducted in two replications.

Chilo suppressalis = test: Insecticidal activity assay, water bamboo leaf dip, 4th instar larvae; settings: liquid concentration 0.4 ppm, 48 h
Protocol: as §1

Spodoptera exigua = test: Insecticidal activity assay, kale leaf dip, 3rd instar larvae; settings: liquid concentration 0.3 ppm, 48 h
Spodoptera frugiperda [1] = test: Insecticidal activity assay, corn leaf dip, 3rd instar larvae; settings: liquid concentration 0.3 ppm, 48 h
Protocol: as §1

Tetranychus urticae = test: Insecticidal activity assay, peanut leaf dip, adult mite; settings: 48 h
Protocol: as §1

Spodoptera frugiperda [2] = test: Assay of insecticidal activity of compositions (synergism), 3rd instar; settings: A 0.1 ppm
Protocol: as §1
• Test targets: Spodoptera frugiperda (3rd instar) and Aphis gossypii (adult aphid) […]
(§2) Different ratios within the selected ratio range were set for toxicity determination, and the optimal ratio was selected according to synergistic effects. When the synergistic effect >0, it indicated a synergistic effect; when the synergistic effect is close to 0, it indicated an addition effect; when the synergistic effect <0, it indicated an antagonistic effect.
(§3) [formula] • wherein, P1, P2—Death rate by each individual agent in a mixed formulation.

Aphis gossypii = test: Assay of insecticidal activity of compositions (synergism), zucchini leaves, adult aphid
Protocol: as §1
• Test targets: Spodoptera frugiperda (3rd instar) and Aphis gossypii (adult aphid)
Referring to the above-mentioned Insecticidal activity assay, when the test target was Aphis gossypii, the zucchini leaves were selected.
as §2, §3

Compound	Death rate (Aphis craccivora) [%]	Death rate (Chilo suppressalis) [%]	Death rate (Spodoptera exigua) [%]	Death rate (Spodoptera frugiperda [1]) [%]	Death rate (Tetranychus urticae; liquid concentration 8.1 ppm) [%]	Death rate by individual A (Spodoptera frugiperda [2]) [%]	Death rate by individual A (Aphis gossypii; A 0.1 ppm) [%]	Death rate (Tetranychus urticae; liquid concentration 0.9 ppm) [%]	pest or weed control at 1 µg/mL (Aphis gossypii; in Cucurbita pepo, 48 h, B 1 ppm, read-out: Death rate by individual B) [%]	pest or weed control at 5 µg/mL (Aphis gossypii; in Cucurbita pepo, 48 h, B 5 ppm, read-out: Death rate by individual B) [%]
COC(=O)C(C)NC(=O)c1ccc(C2=NOC(c3cc(Cl)c(Cl)c(C(F)(F)F)c3)(C(F)(F)F)C2)cc1C(F)(F)F (mixture of isomers) [147 (2R)]	100	100	100	100	100					
COC(=O)[C@@H](C)NC(=O)c1ccc(C2=NOC(c3cc(Cl)c(Cl)c(C(F)(F)F)c3)(C(F)(F)F)C2)cc1C (stereo partly drawn) [Compound 3 (2R)]	93	100	77	100		72	38	100		
COC(=O)[C@@H](C)NC(=O)c1ccc(C2=NOC(c3cc(Cl)cc(Cl)c3)(C(F)(F)F)C2)cc1C (some centres unmarked) [Control compound A, reference compound]	20	40	30	70	25					
COC(=O)C(C)NC(=O)c1ccc(C2=NOC(c3cc(Cl)cc(C(F)(F)F)c3)(C(F)(F)F)C2)cc1C (mixture of isomers) [1 (2R)]	83	100	90	100	83					
COC(=O)C(C)NC(=O)c1ccc(C2=NOC(c3cc(Cl)c(F)c(C(F)(F)F)c3)(C(F)(F)F)C2)cc1C (mixture of isomers) [2 (2R)]	90	100	90	100				100		
CC(C)=NOC(=O)[C@@H](C)NC(=O)c1ccc(C2=NOC(c3cc(Cl)c(Cl)c(C(F)(F)F)c3)(C(F)(F)F)C2)cc1C (stereo partly drawn) [Compound 80 (2R)]	100	100	100	100	100					
COC(=O)CNC(=O)c1ccc(C2=NO[C@@](c3cc(Cl)c(Cl)c(C(F)(F)F)c3)(C(F)(F)F)C2)cc1C [188 (5S)]	100	100	100	100	100					
COC(=O)[C@@H](C)NC(=O)c1ncc(C2=NOC(c3cc(Cl)c(Cl)c(C(F)(F)F)c3)(C(F)(F)F)C2)cc1C (stereo partly drawn) [Compound 154 (2R)]	93	100	77	100				100		
O=[N+]([O-])NC1=NCCN1Cc1ccc(Cl)nc1 [Imidacloprid, reference compound]									53	
CCc1cc(C2=NOC(c3cc(Cl)c(Cl)c(C(F)(F)F)c3)(C(F)(F)F)C2)ccc1C(=O)NC(C)C(=O)OC (mixture of isomers) [140 (2R)]	100	100	100	100	100					
COC(=O)C(C)NC(=O)c1ccc(C2=NOC(c3cc(Cl)c(F)c(C(F)(F)F)c3)(C(F)(F)F)C2)cc1C [Compound 2 (5S, 2R)]	100	100	100	100				100		
COC(=O)[C@@H](C)NC(=O)c1ccc(C2=NOC(c3cc(Cl)c(Cl)c(C(F)(F)F)c3)(C(F)(F)F)C2)cc1Cl (stereo partly drawn) [Compound 144 (2R)]	100	100	100	100	100					
CN/C(=N/CC1CCOC1)N[N+](=O)[O-] (centres unmarked) [Dinotefuran, reference compound]										40
